# From patent publication US7375111B2, “Compositions for affecting weight loss” (priority 2003, dated 2008)
# Values joined by “and” are separate entries in the source; they are usually repeats but may differ in a detail not shown here. Equal entries are not always repeated.
# Legend:
# C57/B16J mice = experiment: Dose-response experiments: cumulative food intake after intraperitoneal injection in fasted mice; conditions: food removed the day before
# Method: Cumulative food intake±SEM was calculated and analyzed using Prizm. […] From the curve, the EC50 at each time point for each drug was determined.
# POMC neurons [1] = experiment: Electrophysiology: cell-attached recordings of action potential frequency of POMC-EGFP neurons in hypothalamic (ARC) slices; conditions: applied to the bath for 3 min
# Method: Under ultraviolet (450-480 nm) excitation, POMC neurons were clearly distinguished from adjacent, non-fluorescent neurons visualized under infrared optics.
# 200 μm thick coronal slices were cut from the ARC of four-week old male POMC-EGFP mice. […] Recordings were made in Krebs at 35° C. Slices were visualized on an Axioskop FS2 plus (Zeiss) through standard infra red optics and using epifluorescence through a FITC (longpass) filter set. […] Cell-attached recordings were made from fluorescent neurons using an Axopatch 200B amplifier (Axon Instruments) and Clampex 8 (Axon Instruments). Action potentials frequencies were determined using an event detection program (Mini Analysis; Synaptosoft Inc., Decatur, Ga.). Drugs were applied to the bath for 3 min.
# Data were analyzed by determining the average firing rate for 500 sec prior to drug addition, and analyzing treatments relative to this frequency (that is, firing rates were normalized to the pre-treatment frequency).
# POMC neurons [2] = conditions: Heisler et al., Science 297(5581):609-11 (2002); cited from earlier work
# [3] = in vivo; cited from earlier work
SMILES,"Cumulative food intake expressed as a proportion of the food intake in saline treated animals, MEAN (C57/B16J mice; Hour 1 post-injection)","Cumulative food intake expressed as a proportion of the food intake in saline treated animals, MEAN (C57/B16J mice; Hour 2 post-injection)","Cumulative food intake expressed as a proportion of the food intake in saline treated animals, MEAN (C57/B16J mice; Hour 4 post-injection)","Cumulative food intake expressed as a proportion of the food intake in saline treated animals, MEAN (C57/B16J mice; Hour 8 post-injection)","Cumulative food intake expressed as a proportion of the food intake in saline treated animals, MEAN (C57/B16J mice; headed Hour 8 a second time)","Mean effect of the drug alone on firing rate, normalized to the pre-treatment frequency (POMC neurons [1])",Effect of fenfluramine alone (POMC neurons [2]),Physiological half life [3]
"Cc1c(C(=O)NN2CCCCC2)nn(-c2ccc(Cl)cc2Cl)c1-c1ccc(I)cc1 [AM 251, N-(piperidin-1-yl)-1-(2,4-dichlorophenyl)-5-(4-iodophenyl)-4-methyl-1H-pyrazole-3-carboxamide]",0.97,0.85,0.88,0.90,0.99,–,–,–
"CC(NC(C)(C)C)C(=O)c1cccc(Cl)c1 (centres unmarked) [Bupropion, bupropion]",0.32,0.64,0.97,0.96,0.99,–,–,–
NCCc1ccc(O)c(O)c1 [Dopamine],–,–,–,–,–,11X (n = 9),–,–
"CCNC(C)Cc1cccc(C(F)(F)F)c1 (centres unmarked) [Fenfluramine, fenfluramine]",–,–,–,–,–,2X increase (n = 6),200%,–
"CNCCC(Oc1ccc(C(F)(F)F)cc1)c1ccccc1 (centres unmarked) [Fluoxetine, fluoxetine]",0.36,0.57,0.68,0.76,1.05,3X (n = 1),–,about 9 hours
"COCCCC/C(=N\OCCN)c1ccc(C(F)(F)F)cc1 [Fluvoxamine, fluvoxamine]",0.77,0.85,0.95,0.91,0.92,–,–,–
"C=C1CC[C@@]2(O)[C@H]3Cc4ccc(O)c5c4[C@@]2(CCN3CC2CC2)[C@H]1O5 [Nalmefene, nalmefene]",0.0083,0.11,0.57,0.81,0.98,–,–,–
"O=C1CC[C@@]2(O)[C@H]3Cc4ccc(O)c5c4[C@@]2(CCN3CC2CC2)[C@H]1O5 [Naltrexone, naltrexone]",0.41 and 0.30,0.77 and 0.56,0.99 and 0.83,1.1 and 0.98,0.98 and 1.01,–,–,–
